According to patent publication US12391669B2, “Substituted pyrimidines as IRE1 kinase inhibitors” (THE REGENTS OF THE UNIVERSITY OF CALIFORNIA, priority 2018, dated 2025):
Like-named read-outs stand apart in the source and are kept apart here.

How the values were obtained:
Assay type in all cases: biochemical
[1] = target: IRE1α kinase (Homo sapiens (Human), UniProt O75460); experiment: IRE1α kinase IC50
[2] = target: IRE1α RNase (Homo sapiens (Human), UniProt O75460); experiment: IRE1α RNase IC50
Chain of IRE1α RNase (O75460 19-977): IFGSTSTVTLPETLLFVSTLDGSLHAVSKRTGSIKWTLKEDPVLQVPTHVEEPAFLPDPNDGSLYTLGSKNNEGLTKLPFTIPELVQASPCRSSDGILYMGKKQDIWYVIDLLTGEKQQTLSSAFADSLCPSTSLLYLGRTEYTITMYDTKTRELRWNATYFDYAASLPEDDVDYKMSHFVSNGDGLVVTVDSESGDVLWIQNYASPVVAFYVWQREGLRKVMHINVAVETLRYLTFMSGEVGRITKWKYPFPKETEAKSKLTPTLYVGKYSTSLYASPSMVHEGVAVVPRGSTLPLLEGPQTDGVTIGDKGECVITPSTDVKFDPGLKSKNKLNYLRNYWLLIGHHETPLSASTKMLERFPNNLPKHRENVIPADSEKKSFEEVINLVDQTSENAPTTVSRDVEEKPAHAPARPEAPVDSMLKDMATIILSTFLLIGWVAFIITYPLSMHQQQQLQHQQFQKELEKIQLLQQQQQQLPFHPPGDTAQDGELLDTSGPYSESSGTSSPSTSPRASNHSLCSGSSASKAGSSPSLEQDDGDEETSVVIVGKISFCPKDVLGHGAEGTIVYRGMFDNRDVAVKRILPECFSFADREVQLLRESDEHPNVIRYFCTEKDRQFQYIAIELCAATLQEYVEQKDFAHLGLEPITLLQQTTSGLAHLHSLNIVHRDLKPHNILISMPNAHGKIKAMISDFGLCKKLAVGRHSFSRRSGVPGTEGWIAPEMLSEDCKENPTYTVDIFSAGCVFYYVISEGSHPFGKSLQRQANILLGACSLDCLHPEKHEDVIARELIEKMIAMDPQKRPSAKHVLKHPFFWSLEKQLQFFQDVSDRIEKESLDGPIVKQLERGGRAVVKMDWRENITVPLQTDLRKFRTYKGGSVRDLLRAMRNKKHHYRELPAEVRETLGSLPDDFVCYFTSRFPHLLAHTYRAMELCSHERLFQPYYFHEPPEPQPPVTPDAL

[3] = target: IRE1β kinase (Homo sapiens (Human), UniProt Q76MJ5); experiment: IRE1β kinase IC50
Chain of IRE1β kinase (Q76MJ5 35-926): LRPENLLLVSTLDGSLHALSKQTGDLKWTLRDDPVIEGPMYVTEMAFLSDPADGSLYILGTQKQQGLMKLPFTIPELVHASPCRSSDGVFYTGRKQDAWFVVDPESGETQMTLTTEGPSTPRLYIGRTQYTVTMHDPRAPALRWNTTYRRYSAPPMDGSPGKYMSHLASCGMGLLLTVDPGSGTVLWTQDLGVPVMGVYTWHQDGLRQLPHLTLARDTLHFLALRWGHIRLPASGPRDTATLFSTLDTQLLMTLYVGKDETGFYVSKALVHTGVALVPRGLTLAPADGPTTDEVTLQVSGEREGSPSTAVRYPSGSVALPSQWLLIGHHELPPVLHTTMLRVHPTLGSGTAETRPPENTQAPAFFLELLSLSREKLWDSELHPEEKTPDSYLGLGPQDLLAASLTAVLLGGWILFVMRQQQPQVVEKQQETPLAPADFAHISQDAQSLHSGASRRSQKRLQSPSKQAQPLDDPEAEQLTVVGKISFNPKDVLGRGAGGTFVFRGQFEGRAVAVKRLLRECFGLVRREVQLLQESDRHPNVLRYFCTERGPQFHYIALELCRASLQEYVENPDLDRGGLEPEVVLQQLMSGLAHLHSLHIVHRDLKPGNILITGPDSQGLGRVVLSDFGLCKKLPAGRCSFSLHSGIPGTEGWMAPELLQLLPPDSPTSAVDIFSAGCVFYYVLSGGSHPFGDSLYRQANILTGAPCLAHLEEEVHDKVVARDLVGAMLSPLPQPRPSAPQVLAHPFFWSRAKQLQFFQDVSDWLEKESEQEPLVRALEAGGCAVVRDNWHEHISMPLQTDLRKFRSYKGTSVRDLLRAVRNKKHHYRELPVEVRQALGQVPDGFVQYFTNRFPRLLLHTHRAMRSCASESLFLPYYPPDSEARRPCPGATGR

Chain of IRE1α kinase (O75460 19-977): as the sequence (O75460 19-977) above

Compound	IC50 ([1]; (HF)) [nM]	IC50 ([2]; (HF)) [nM]	IC50 [3] [nM]	IC50 [1] [nM]	also measured
Cc1ccc(C(=O)Nc2ccccc2Cl)cc1Oc1ncsc1-c1ccnc(N[C@H]2CCCNC2)n1 [compound 16, (S)—N-(2-chlorophenyl)-4-methyl-3-(5-(2-(piperidin-3-ylamino)pyrimidin-4-yl)thiazol-4-yloxy)benzamide]	307		> 10000		IC50 ([1]; (RB)): 228 nM
Cc1ccc(C(=O)NCc2ccccc2Cl)cc1Oc1ncsc1-c1ccnc(N[C@H]2CCCNC2)n1 [compound 20, (S)—N-(2-chlorobenzyl)-4-methyl-3-(5-(2-(piperidin-3-ylamino)pyrimidin-4-yl)thiazol-4-yloxy) benzamide]	55				IRE1α RNase IC50 ([2]; result in words, pIRE1α): No inhibition of pIRE1α
O=S(=O)(Nc1ccc(Oc2ncsc2-c2ccnc(N[C@H]3CCCNC3)n2)cc1F)c1ccccc1Cl [compound 25]		46	32	117	
c1ccc2[nH]c(Cc3ccc(Oc4ncsc4-c4ccnc(N[C@H]5CCCNC5)n4)cc3)nc2c1 [compound 30, (S)-4-(4-(4-((1H-benzo[d]imidazol-2-yl)methyl)phenoxy)thiazol-5-yl)-N-(piperidin-3-yl)pyrimidin-2-amine]			8400	439	IC50 [2]: 118 nM
Cc1cc(NS(=O)(=O)c2ccccc2Cl)ccc1Oc1ncsc1-c1ccnc(N[C@H]2CCCNC2)n1 [compound 39]	1140				
O=S(=O)(NCc1cccc(Oc2ncsc2-c2ccnc(N[C@H]3CCCNC3)n2)c1)c1ccccc1Cl [compound 43, (S)-2-chloro-N-(3-(5-(2-(piperidin-3-ylamino)pyrimidin-4-yl)thiazol-4-yloxy)benzyl)benzenesulfonamide]	1600				
Cc1nc(Oc2ccc(NS(=O)(=O)c3ccccc3Cl)c3ccccc23)c(-c2ccnc(N[C@H]3CCCNC3)n2)s1 [compound 67, (S)-2-chloro-N-(4-(2-methyl-5-(2-(piperidin-3-ylamino)pyrimidin-4-yl)thiazol-4-yloxy)naphthalen-1-yl)benzenesulfonamide]	63	19			
O=S(=O)(Cc1ccccc1Cl)Nc1ccc(Oc2nccnc2-c2ccnc(N[C@H]3CCCNC3)n2)cc1F [compound 73, (S)-1-(2-chlorophenyl)-N-(2-fluoro-4-(3-(2-(piperidin-3-ylamino)pyrimidin-4-yl)pyrazin-2-yloxy)phenyl) methane sulfonamide]			1570	961	
O=S(=O)(Nc1ccc(Oc2nccnc2-c2ccnc(N[C@H]3CCCNC3)n2)c2ccccc12)c1ccccc1Cl [compound 84, (S)-2-chloro-N-(4-(3-(2-(piperidin-3-ylamino)pyrimidin-4-yl)pyrazin-2-yloxy)naphthalen-1-yl)benzenesulfonamide]			1980	296	

Second part, led by results:

IC50 ([1]; (HF)) [nM]	IC50 ([2]; (HF)) [nM]	IC50 [3] [nM]	IC50 [1] [nM]	Compound	also measured
119	24			O=S(=O)(Cc1ccccc1Cl)Nc1ccc(Oc2ncsc2-c2ccnc(N[C@H]3CCCNC3)n2)cc1F [compound 11, (S)-1-(2-chlorophenyl)-N-(2-fluoro-4-(5-(2-(piperidin-3-ylamino)pyrimidin-4-yl)thiazol-4-yloxy)phenyl)methane sulfonamide]	
	153			c1cc(Cc2nc3ccccc3[nH]2)cc(Oc2ncsc2-c2ccnc(N[C@H]3CCCNC3)n2)c1 [compound 35, (S)-4-(4-(3-((1H-benzo[d]imidazol-2-yl)methyl)phenoxy)thiazol-5-yl)-N-(piperidin-3-yl)pyrimidin-2-amine]	
	8.3	181	10	O=S(=O)(Nc1cccc2c(Oc3ncsc3-c3ccnc(N[C@H]4CCCNC4)n3)cccc12)c1ccccc1Cl [compound 47, (S)-2-chloro-N-(5-(5-(2-(piperidin-3-ylamino)pyrimidin-4-yl)thiazol-4-yloxy)naphthalen-1-yl)benzenesulfonamide]	
524				O=C(NCc1ccccc1Cl)c1cccc(Oc2ncsc2-c2ccnc(N[C@H]3CCCNC3)n2)c1 [compound 51, (S)—N-(2-chlorobenzyl)-3-(5-(2-(piperidin-3-ylamino)pyrimidin-4-yl)thiazol-4-yloxy)benzamide]	
3180				Cc1ccc(C(=O)N(C)Cc2ccccc2Cl)cc1Oc1ncsc1-c1ccnc(N[C@H]2CCCNC2)n1 [compound 55, (S)—N-(2-chlorobenzyl)-N,4-dimethyl-3-(5-(2-(piperidin-3-ylamino)pyrimidin-4-yl)thiazol-4-yloxy)benzamide]	
		2100	6200	O=S(=O)(Nc1ccc(Oc2nccnc2-c2ccnc(N[C@H]3CCCNC3)n2)cc1F)c1ccccc1Cl [compound 77, (S)-2-chloro-N-(2-fluoro-4-(3-(2-(piperidin-3-ylamino)pyrimidin-4-yl)pyrazin-2-yloxy)phenyl)benzenesulfonamide]	
		> 10000	7300	c1ccc2[nH]c(Cc3ccc(Oc4nccnc4-c4ccnc(N[C@H]5CCCNC5)n4)cc3)nc2c1 [compound 88, (S)-4-(3-(4-((1H-benzo[d]imidazol-2-yl)methyl)phenoxy)pyrazin-2-yl)-N-(piperidin-3-yl)pyrimidin-2-amine]	
	117	120	98	Cc1ccc2c(NS(=O)(=O)c3ccccc3Cl)cccc2c1Oc1nccnc1-c1ccnc(N[C@H]2CCCNC2)n1 [compound 96]	
